Results on 89 molecules are retold here after ChEMBL document CHEMBL1157539, “Thousands of chemical starting points for antimalarial lead identification” (Nature, 2010).

The assay deals with Plasmodium falciparum. Briefly: GSK_TCMDC: Inhibition of Plasmodium falciparum 3D7 in whole erythrocytes, using parasite LDH activity as an index of growth. The class given is functional, organism-based. The note with it: Plasmodium falciparum, 3D7.
Consider `CN1CCN(c2ccc(Nc3c4ccccc4nc4ccccc34)cc2)CC1`, for which the XC50 was 645 nM.
The result for `CCc1nc(N)nc(N)c1-c1cccc(Cl)c1` reads 193 nM; that for `Cc1c(Cl)cccc1S(=O)(=O)Nc1cccc(CCN2CCC(N3CCCCC3)CC2)c1`, 830 nM.
`Cc1nc(Nc2ccc(C)c(Cl)c2)c2c(C)noc2n1` displayed an XC50 of 886 nM.
On to `CCCC(CNCc1ccccc1)CNc1cc(=O)c2ccccc2[nH]1` (centres undefined), for which the XC50 came out at 1020 nM.
In turn, `O=C(c1ccc([N+](=O)[O-])o1)N1CCN(c2ccccc2)CC1` yielded an XC50 of 40 nM.
On to `CN1CCc2cc(I)c(O)cc2C1Cc1ccccc1Cl` (centres undefined), for which the XC50 worked out at 788 nM.
To `CCn1c(-c2nonc2N)nc2c(Cl)ncc(O[C@H](CCN)c3ccccc3F)c21` belongs 1460 nM; to `Fc1cc(Cl)ccc1Nc1ccnc2cc(-c3ccc(CN4CCOCC4)o3)ccc12`, 639 nM; to `CN(C)CCOc1cc(NC(=O)Nc2ccc(-c3ccccc3)cc2Cl)ccc1I`, 245 nM.
The result for `CNc1cc(-c2ccc3ccnc(N)c3c2)nc(N)n1` reads 119 nM; that for `O=C(/C=C/c1ccc(Cl)c(Cl)c1)N1CCC(CCN2CCc3[nH]c4ccccc4c3C2)CC1`, 886 nM; that for `N#CCCn1nc(-c2ccc(Cl)cc2)c2c(c1=O)CCCC2`, 892 nM.
To `COc1ccc2nccc(N3CCC(O)(CCNCc4ccc5c(n4)NC(=O)CS5)CC3)c2n1` belongs 648 nM.
In turn, `CC(=O)Nc1cccc(C(=O)Nc2cccc(-c3cccc(-c4nc5cc(F)ccc5[nH]4)c3)c2)c1` returned an XC50 of 549 nM.
To `Clc1ccc2c(NN=Cc3cccnc3)ccnc2c1` belongs 696 nM; to `COc1ccc(C=NN=c2cc(C)[nH]c3ccccc23)c(OC)c1`, 616 nM.
To `O=C(/C=C/c1ccccc1Cl)Nc1ccc(Br)c(OCCN2CCCCC2)c1` belongs 168 nM; to `CC(C)C(=O)ONC1=NC(=N)N(OCCCOc2cc(Cl)c(Cl)cc2Cl)C(C)(C)N1`, 3.2 nM; to `CC(Cc1ccc(OCCCCOc2ccccc2)cc1)NCCc1ccc(Oc2ccccc2)cc1` (centres undefined), 812 nM.
In turn, `O=C(NC1CCC(CN2CCC(c3c[nH]c4ccccc34)CC2)CC1)c1cn(Cc2ccccc2)c2ccccc12` (centres undefined) returned an XC50 of 1130 nM.
The result for `NC(=O)c1ccc(NC(=O)CN(Cc2ccc(Cl)cc2)S(=O)(=O)c2ccccc2)cc1` reads 653 nM.
`Cc1[nH]c(C)c(-c2ccc(OCc3ccccc3)cc2)c(=O)c1Br` yielded an XC50 of 280 nM.
To `Nc1cc(-c2ccc(Br)cc2O)nc2ccccc12` belongs 619 nM.
To `Nc1nc(N)c2c(ccc3[nH]c(-c4ccccc4Cl)nc32)n1` belongs 231 nM; to `Cc1cc(N[C@@H](Cc2ccccc2)C(=O)NCCOc2ccccc2)nc(NCCc2ccccc2)n1`, 1030 nM; to `CC(=O)N(Cc1ccccc1-c1cccc(CNCc2ccc3c(c2)OCO3)c1)C1CCN(Cc2ccccc2)CC1`, 1050 nM.
To `CN1CC[C@H](N(Cc2ccccc2F)c2ccc(C#N)c(Cl)c2)C1` belongs 1270 nM.
In the case of `Cc1cc(NCC2CCN(CC3CCCCC3)C2)nc(Nc2ccc(Br)cc2)n1` (centres undefined), the XC50 came to 879 nM.
To `CCCCc1cc(NCc2ccncc2)nc(Nc2ccccc2)n1` belongs 843 nM.
In turn, `O=C(/C=C/c1ccc(Cl)c(Cl)c1)NCCCCCN1CCC(NS(=O)(=O)c2cc(Cl)cc(Cl)c2)CC1` yielded an XC50 of 1240 nM.
The result for `CC(=O)c1ccc(NC(=O)Nc2ccc3nccc(N4CCN(C)CC4)c3c2)cc1` reads 432 nM; that for `CC1(C)N=C(N)N=C(Nc2ccc(Cl)cc2)N1`, 336 nM.
To `COc1ccccc1C(=O)Nc1ccc(Nc2nc(C)cc(N3CCOCC3)n2)cc1` belongs 528 nM.
The result for `COc1c(C(=O)NC2CCN(Cc3ccccc3)C2)cnc2ccccc12` (centres undefined) reads 956 nM.
`Cc1cc(N[C@@H](Cc2ccccc2)C(=O)Nc2ccccc2)nc(Nc2ccccc2)n1` came in with an XC50 of 1010 nM.
To `c1ccc2[nH]c(-c3ccc(-c4ccc(CN5CCN(CCN6CCOCC6)CC5)cc4)cc3)nc2c1` belongs 158 nM; to `CCN(CC)CC(O)c1cc(-c2ccc(OC)cc2)nc2cc(Cl)ccc12` (centres undefined), 67.1 nM; to `FC(F)(F)c1ccc2[nH]ccc(=NN=Cc3cccnc3)c2c1`, 625 nM.
`CC(C)NCc1cccc(-c2cccc(-c3nc4cc(F)ccc4[nH]3)c2)c1` showed an XC50 of 285 nM.
To `Oc1ccc(CCNc2nc(NCc3ccccc3-c3ccc(F)cc3)nc(N3CCNCC3)n2)cc1` belongs 1070 nM; to `Cc1ccc(S(=O)(=O)NC2=NC(=N)N(OCc3ccc(Cl)c(Cl)c3)C(C)(C)N2)cc1`, 1140 nM.
The result for `CN1CCCN(Cc2cccc(-c3ccc(CNC(=O)c4cccc(Cl)c4)c(F)c3)c2)CC1` reads 190 nM; that for `CCOC(=O)c1ccc(NC(=O)c2ccccc2C(=O)O)cc1`, 922 nM.
`O=C(Nc1ccc(-c2csc(-c3nc4ccccc4[nH]3)c2)cc1)Nc1ccc(Cl)c(Cl)c1` had an XC50 of 402 nM.
To `CCCNCc1ccc(-c2ccc(CN(CCOC)C(=O)c3cnc(C)cn3)cc2)nc1` belongs 1250 nM; to `CCCc1cc(=O)[nH]c(-n2nc(C)cc2NC(=O)c2cc3ccccc3o2)n1`, 1110 nM; to `Nc1cccc(CNCc2cccc(-c3ccc(-c4nc5ccccc5[nH]4)s3)c2)c1`, 604 nM.
To `O=C(Nc1ccc(Cl)cc1)N1CCN(C2CCCCC2)CC1` belongs 986 nM; to `CN(C)CCN(C)Cc1ccc(-c2ccc(NS(=O)(=O)c3cccc4cccnc34)cc2)cc1`, 864 nM; to `Cc1[nH]c2ccc(NS(C)(=O)=O)cc2c1C1CCN(CC2CCN(C(=O)/C=C/c3ccc(Cl)c(Cl)c3)CC2)CC1`, 684 nM.
Molecule `O=C(/C=C/c1ccc(Cl)c(Cl)c1)N1CCC(CCN2CCC(c3nc4cc(O)ccc4[nH]3)CC2)CC1` showed an XC50 of 344 nM.
The result for `S=C(NCCCCCN1CCC(c2c[nH]c3ccccc23)CC1)Nc1ccc(Cl)c(Cl)c1` reads 709 nM.
The result for `COc1ccccc1Cn1ccnc1SCC(=O)Nc1cccc(C(F)(F)F)c1` reads 907 nM; that for `CCOc1ccc2nc(N(CCCn3ccnc3)C(=O)C=Cc3cccs3)sc2c1`, 777 nM; that for `CN1CCN(CCCN(Cc2cccc(-c3ccc(CNCCc4ccccc4)cc3)c2)C(=O)c2cccs2)CC1`, 716 nM.
Consider `COc1ccc(-c2ccc(NC(=O)c3cccc(F)c3)cc2)cc1CN1CCCN(C)CC1`, for which the XC50 worked out at 672 nM.
The result for `Cc1ccc(Cn2nc(Cl)c(N3CCCNCC3)cc2=O)cc1NC(=O)Nc1ccc(-c2ccccc2)cc1` reads 667 nM; that for `CC1CCCN(S(=O)(=O)c2ccc(NC(=O)c3cc(-c4ccccc4O)n[nH]3)cc2)C1` (centres undefined), 757 nM.
The result for `Cc1nnc2c(NC(=O)NC3CCCC3)cc3ccc(-c4cccc(CN(C)C)c4)cc3n12` reads 1160 nM; that for `c1ccc(CNCc2ccc(-c3ccc(-c4nc5ccccc5[nH]4)cc3)cc2)cc1`, 338 nM.
To `COc1ccccc1Cc1c(C)nc2nc(N)nc(N)c2c1C` belongs 569 nM; to `COC(=O)c1ccc(CC(C)NCC(O)c2ccc(F)c(Cl)c2)cc1` (centres undefined), 863 nM.
As for `N=C(N)Nc1nccc(NCc2ccccc2)n1`, the XC50 is 895 nM.
The result for `O=C(Nc1ccc(-c2nc3ccccc3[nH]2)cc1)C1CCN(Cc2ccc(F)cc2)CC1` reads 838 nM; that for `CCNc1cc(C(=O)N[C@@H](Cc2cc(F)cc(F)c2)[C@H](O)CNCc2cccc(C(F)(F)F)c2)cc(N2CCCCS2(=O)=O)c1`, 613 nM; that for `CCOC(=O)c1c(CN2CCCC2)n(-c2ccccc2)c2cc(Br)c(O)cc12`, 1010 nM.
For `O=C(Nc1ccc(N2CCN(Cc3ccccc3Cl)CC2)cc1)c1ccc([N+](=O)[O-])o1`, the XC50 is 975 nM.
The result for `Cc1cc(N[C@@H](Cc2ccccc2)C(=O)NCCOc2ccccc2)nc(NCCOc2ccccc2)n1` reads 1360 nM.
To `Cc1cccc(CN2CCCC3(CCN(Cc4ccccc4O)C3)C2)c1` (centres undefined) belongs 801 nM; to `Cc1cccc2nc(-c3ccc(-c4cccc(CNCc5ccc(CN)cc5)c4)s3)[nH]c12`, 606 nM; to `CCCS(=O)(=O)N1CCC(CO)(Cc2ccccc2C(F)(F)F)CC1`, 885 nM.
To `COc1cc(-c2nc(-c3ccncc3)c(-c3ccc4c(c3)CCC4=NO)[nH]2)ccc1OCCN1CCCCC1` belongs 789 nM; to `Cc1ccc2c(=NN=CC=Cc3ccccc3)cc(C)[nH]c2c1`, 1120 nM; to `CC(C)(C)c1ccc(NC(=O)N[C@@H]2CCN(c3ccnc4ccccc34)C2)cc1`, 350 nM.
In the case of `COc1cccc(CNC(=O)c2cc(CNCc3ccccc3)ccc2-c2cccc(CNCc3ccc(-c4ccccc4)cc3)c2)c1`, the XC50 was found to be 847 nM.
Molecule `O=C(Nc1ccc(Cl)cc1)Nc1ccc(OCC(O)CN2CCCCC2)cc1` (centres undefined) gave an XC50 of 1160 nM.
The result for `CC(C)N1CCN(c2ccc(OCCCN3CCN(c4cccc(Cl)c4Cl)CC3)c(C(F)(F)F)c2)CC1` reads 810 nM.
For `COc1cccc(-c2csc(C(=O)NCC3CCN(Cc4ccc(C(C)(C)C)cc4)C3)c2)c1` (centres undefined), the XC50 was found to be 1180 nM.
To `CN1CCCC1CCNc1ncc2c(-c3ccc(NC(=O)Nc4cc(C(F)(F)F)ccc4F)c(F)c3)nn(C)c2n1` (centres undefined) belongs 287 nM; to `Cn1nccc1C(=O)NCCNCc1cccc(-c2cccc(-c3nc4cc(C(F)(F)F)ccc4[nH]3)c2)c1`, 172 nM; to `COc1cccc(-c2cc(C(F)(F)F)n3ncc(C(=O)Nc4cc(Cl)ccc4O)c3n2)c1`, 203 nM.
The result for `C=CCc1cc(C2CCN(CCCCNC(=O)c3ccc(-c4ccc(C#N)cc4)cc3)CC2)c(OCC(N)=O)c2c1CCCC2` reads 799 nM; that for `COC(=O)c1c(C#N)c(OC)cc(O)c1CSC[C@H](Nc1nc(-c2ccc([N+](=O)[O-])cc2)cs1)C(=O)NCCN1CCCCC1`, 1060 nM; that for `c1ccc(CCNc2nc(NCC(c3ccccc3)c3ccccc3)c3nc[nH]c3n2)cc1`, 617 nM.
The result for `Cc1ccc2nc(-c3ccc(C(=O)NC4CCN(Cc5ccccc5)CC4)cc3)[nH]c2c1C` reads 729 nM; that for `CCCCCN1CCCC1CNS(=O)(=O)c1cccc(C(=O)Nc2cccc(C(F)(F)F)c2)c1` (centres undefined), 770 nM.
Molecule `O=C(NC1CCN(CCN2CCc3ccccc3CC2)CC1)c1ccc(-c2ccc(C(F)(F)F)cc2)cc1` showed an XC50 of 935 nM.
The result for `Cc1cccc2nc(-c3ccc(-c4cccc(NCc5cn6cccnc6n5)c4)cc3)[nH]c12` reads 787 nM.
